The record followed here is article PMC10031741, “A D-cysteine desulfhydrase, SlDCD2, participates in tomato fruit ripening by modulating ROS homoeostasis and ethylene biosynthesis” (Horticulture Research, 2023).

This assay addresses T1, SlDCD2 (Solanum lycopersicum, UniProt A0A3Q7EA38).
T1 construct: gene LOC101256906; tag removal not mentioned
T1 sequence (A0A3Q7EA38 1-442): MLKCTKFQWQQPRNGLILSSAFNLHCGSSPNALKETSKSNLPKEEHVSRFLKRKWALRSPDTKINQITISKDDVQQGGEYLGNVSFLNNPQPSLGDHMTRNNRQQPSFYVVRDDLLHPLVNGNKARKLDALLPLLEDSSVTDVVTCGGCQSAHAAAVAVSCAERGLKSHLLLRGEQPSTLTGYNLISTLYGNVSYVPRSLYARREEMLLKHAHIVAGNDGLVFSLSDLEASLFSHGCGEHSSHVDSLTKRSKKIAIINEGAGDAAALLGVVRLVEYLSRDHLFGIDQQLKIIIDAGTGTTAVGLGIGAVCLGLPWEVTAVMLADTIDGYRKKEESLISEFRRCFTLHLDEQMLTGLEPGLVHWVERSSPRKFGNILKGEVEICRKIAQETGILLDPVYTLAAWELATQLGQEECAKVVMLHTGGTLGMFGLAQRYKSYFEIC
Nature of the assay: H2S production, methylene blue at […] nm. Format: biochemical. To be noted: H2S release; assay as in cited reference.

For `N[C@H](CS)C(=O)O` [D-cysteine], the “H2S production, methylene blue at 670 nm” value is listed as “Using D-cysteine as the substrate, the enzymatic activity of SlDCD2 was evaluated”.
